Data on three molecules can be found in paper PMC8165439, “Chymase Dependent Pathway of Angiotensin II Generation and Rapeseed Derived Peptides for Antihypertensive Treatment of Spontaneously Hypertensive Rats” (Frontiers in Pharmacology, 2021).

Where a SMILES comes first, the peptide text is derived from it. Where no end group is shown, it is not given here.

Data set [1] relates to adult SHR. Conditions: tail cuff method, ref Kirimura et al. (2005); cited from earlier work. The text has this:
[Kirimura et al. (2005)], studied NK3201, another chymase inhibitor. […] However, the study by [Kirimura et al. (2005)], in addition to the obvious difference in the protocol (single oral dose vs. our chronic intravenous infusion) has another limitation: the tail cuff method was used to measure blood pressure.

The subject of data set [2] is spontaneously hypertensive rats (SHR). In words: Plasma and urine parameters during chronic treatment. In kind it is in vivo, rat. Conditions: mean ± SEM. The procedure:
(§1) Systolic and diastolic blood pressure (SBP and DBP, respectively) and heart rate (HR) were measured in conscious unrestrained rats by telemetry technique, once a week for 24 h. 24 hour observations in metabolic cages (Tecniplast S. p.A. Buguggiate, Italy) were performed weekly. The diuresis, weight of feces, food and water intake were measured; urine and blood samples were collected on day 0, 7th and 14th, and were centrifuged at 1200 g (blood for 15 min and urine for 5 min), then the samples were stored at –80°C until analysis.
(§2) On day 0 all animals received saline (0.9% NaCl) and then, for 14 consecutive days, the substance tested. Chymostatin (CH, 2 mg/kg/day) was dissolved in DMSO and then diluted with PBS (final concentration of DMSO was 0.15%). Peptides RIY (7.5 mg/kg/day) and VWIS (12.5 mg/kg/day) were dissolved in saline (0.9% NaCl, S). The substances were administered through the femoral vein during 10 min in the volume of 0.5 ml to young SHR (infusion rate: 3 ml/h) and 1 ml to adult rats (infusion rate: 6 ml/h). Control rats received solvents (either DMSO or saline) in the same volume.
(§3) Urine volume was determined by gravimetric method. Sodium and potassium concentration in urine and plasma were measured by flame photometry (PFP7/C, Jenway Ltd, Stone, United Kingdom). Urine and plasma osmolality were measured by freezing point depression (Osmomat® 030 M, Gonotec, Berlin, Germany). These parameters were used to determine the excretion rates of total solutes (UosmV), sodium (UNaV) and potassium (UKV). Commercially available ELISA kits were used to measure nitric oxide metabolites (NOx, SunRed, Shanghai) and albumin (Albumin, ICL, Portland) concentration in urine. Excretion rate of NOx (UNOxV) and albumin (UAE) were calculated.

For data set [3] the test system is unchanged. In words: Metabolic parameters in metabolic cages during chronic treatment. Conditions: mean ± SEM. In kind it is in vivo, rat. Here is the method:
as §1, §2, §3

Data set [4] deals with ACE. The note with it: ref Marczak et al. (2003); cited from earlier work.
Data set [5] concerns the target T1, Human chymase (Homo sapiens, UniProt P23946).
T1 sequence (P23946 22-247): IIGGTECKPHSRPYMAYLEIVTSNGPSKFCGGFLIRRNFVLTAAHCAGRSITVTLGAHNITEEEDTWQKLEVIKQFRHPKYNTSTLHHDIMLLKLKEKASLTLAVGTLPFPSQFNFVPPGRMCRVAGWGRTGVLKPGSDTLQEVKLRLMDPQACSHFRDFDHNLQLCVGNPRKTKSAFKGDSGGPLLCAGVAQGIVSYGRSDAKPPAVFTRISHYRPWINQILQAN
Conditions: pH 7.8.
Method: Chymase digestion of ANG I in the presence of synthetized peptides was performed in vitro. The concentration of remaining ANG I was calculated in order to assess the ability of peptides to inhibit chymase.
Human chymase (72 units/mg protein; 259 µg protein/ml, vial volume 187 μl, Sigma) stock solution was prepared by diluting the initial sample of enzyme with Tris*HCl buffer (0.27 mM Tris*HCl, pH 7.8 and 150 mM NaCl) to obtain the final chymase concentration of 1.379 μg/ml.
Reactions (during which ANG I was converted to ANG II through removal of two C-terminal residues) were stopped at the desired times (0, 10, 20, 30, 40, 60, 80 min) by addition of 10 μl of 98% FA. […] Positive electrospray (ES+) was used as the ionization method for mass spectrometry.
The inhibitory effect of each peptide on chymase activity was expressed as remaining amount of substrate vs. time of digestion and presented as percentage ratio and calculated by the following formula [ANG It=X min/ANG It=0 min]x100% where ANG It=X min is the peak area of angiotensin I at desired time of digestion, ANG It=0 min is the peak area of angiotensin I at 0 min of digestion.

The mark [6] stands for this setting: adult SHR (SHR-16), day 0 (baseline).
Setting [7] is: adult SHR (SHR-16), day 7 of daily iv CH 2, RIY 7.5, VWIS 12.5 mg/kg/day.
The mark [8] stands for this setting: adult SHR (SHR-16), day 7 of daily iv treatment.
Setting [9] is: adult SHR (SHR-16), day 14 of daily iv CH 2, RIY 7.5, VWIS 12.5 mg/kg/day.
The mark [10] stands for this setting: adult SHR (SHR-16), day 14 of daily iv treatment.
Where [11] appears, read: young SHR (SHR-6), day 0 (baseline), CH n=8-10, RIY n=5, VWIS n=5-6.
The mark [12] stands for this setting: young SHR (SHR-6), day 0 (baseline).
The mark [13] stands for this setting: young SHR (SHR-6), day 7 of daily iv CH 2, RIY 7.5, VWIS 12.5 mg/kg/day.
[14] abbreviates: young SHR (SHR-6), day 7 of daily iv treatment.
The mark [15] stands for this setting: young SHR (SHR-6), day 14 of daily iv CH 2, RIY 7.5, VWIS 12.5 mg/kg/day.
Setting [16] is: young SHR (SHR-6), day 14 of daily iv treatment.

As for `O=CNc1cnc(-c2ccccc2)n(CC(=O)NC(Cc2ccccc2)C(=O)C(=O)CCCOc2ccccn2)c1=O` (stereo not drawn) [NK3201], the “blood pressure after a single oral dose” value in data set [1] is “did not lower blood pressure”.

As to `CC[C@H](C)[C@H](NC(=O)[C@H](Cc1c[nH]c2ccccc12)NC(=O)[C@@H](N)C(C)C)C(=O)N[C@@H](CO)C(=O)O` [VWIS, Valine-Tryptophan-Isoleucine-Serine] (H-VWIS-OH), the Plasma osmolality in data set [2] (adult SHR (SHR-16), day 0 (baseline), CH n=5-8, RIY n=5-6, VWIS n=5-6) was found to be 313±1 mOsm/l; in data set [2] (setting [7]) it was 308±1 mOsm/l; in data set [2] (setting [9]) it was 302±2 mOsm/l; in data set [2] (setting [11]), 295±2 mOsm/l; in data set [2] (setting [13]), 297±1 mOsm/l; in data set [2] (setting [15]), 293±3 mOsm/l. In addition, the “Plasma K+ concentration” value in data set [2] (setting [6]) was found to be 4.20 ± 0.18 mmol/L; in data set [2] (setting [8]) it was 3.78 ± 0.31 mmol/L; in data set [2] (setting [10]) it was 3.96 ± 0.06 mmol/L; in data set [2] (setting [12]), 4.42 ± 0.20 mmol/L; in data set [2] (setting [14]), 4.45 ± 0.16 mmol/L; in data set [2] (setting [16]), 4.33 ± 0.14 mmol/L. Moreover, the “Plasma Na+ concentration” value in data set [2] (setting [6]) was found to be 133.0 ± 0.8 mmol/L; in data set [2] (setting [8]), 130.2 ± 4.5 mmol/L; in data set [2] (setting [10]) it was 135.8 ± 4.7 mmol/L; in data set [2] (setting [12]) it was 131.8 ± 3.0 mmol/L; in data set [2] (setting [14]), 133.40 ± 5.6 mmol/L; in data set [2] (setting [16]), 131.4 ± 4.5 mmol/L. Moreover, the Potassium excretion in data set [2] (setting [6]) is 0.97 ± 0.21 µmol/min; in data set [2] (setting [8]), 1.26 ± 0.27 µmol/min; in data set [2] (setting [10]), 0.95 ± 0.21 µmol/min; in data set [2] (setting [12]) it was 0.73 ± 0.20 µmol/min; in data set [2] (setting [14]), 1.75 ± 0.15 µmol/min; in data set [2] (setting [16]) it was 0.72 ± 0.11 µmol/min. Also, the Sodium excretion in data set [2] (setting [6]) came to 0.90 ± 0.18 µmol/min; in data set [2] (setting [8]) it was 1.02 ± 0.19 µmol/min; in data set [2] (setting [10]), 0.81 ± 0.16 µmol/min; in data set [2] (setting [12]), 0.69 ± 0.13 µmol/min; in data set [2] (setting [14]) it was 0.84 ± 0.13 µmol/min; in data set [2] (setting [16]) it was 0.63 ± 0.08 µmol/min. Moreover, the Total solute excretion in data set [2] (setting [6]) worked out at 7.52±1.54 µOsm/min; in data set [2] (setting [8]), 9.90±2.21 µOsm/min; in data set [2] (setting [10]), 10.42±2.06 µOsm/min; in data set [2] (setting [12]), 5.48±1.40 µOsm/min; in data set [2] (setting [14]), 7.11±0.95 µOsm/min; in data set [2] (setting [16]) it was 7.16±0.75 µOsm/min. For the same molecule, the Body weight in data set [3] (adult SHR (SHR-16), day 0 (baseline), CH n=8, RIY n=5-6, VWIS n=5-6) amounted to 304 ± 8 g; in data set [3] (setting [7]) it was 312 ± 11 g; in data set [3] (setting [9]), 329 ± 11 g; in data set [3] (setting [11]), 110 ± 11 g; in data set [3] (setting [13]) it was 145 ± 13 g; in data set [3] (setting [15]) it was 174 ± 13 g. Further, the Diuresis in data set [3] (setting [6]) worked out at 7.1 ± 1.4 µL/min; in data set [3] (setting [8]), 7.0 ± 1.3 µL/min; in data set [3] (setting [10]), 8.0 ± 1.8 µL/min; in data set [3] (setting [12]), 6.3 ± 0.8 µL/min; in data set [3] (setting [14]) it was 7.2 ± 0.7 µL/min; in data set [3] (setting [16]), 8.5 ± 0.8 µL/min. For the same molecule, the Faeces amounted to 11±1 g/24 h in data set [3] (setting [6]); 11±2 g/24 h in data set [3] (setting [8]); 11±1 g/24 h in data set [3] (setting [10]); 10±1 g/24 h in data set [3] (setting [12]); 13±1 g/24 h in data set [3] (setting [14]); 14±1 g/24 h in data set [3] (setting [16]). The Food intake in data set [3] (setting [6]) was 20±1 g/24 h; in data set [3] (setting [8]) it was 22±1 g/24 h; in data set [3] (setting [10]) it was 19±1 g/24 h; in data set [3] (setting [12]), 16±1 g/24 h; in data set [3] (setting [14]) it was 19±1 g/24 h; in data set [3] (setting [16]), 20±1 g/24 h. Also, the Water intake was 30±1 g/24 h in data set [3] (setting [6]); 34±1 g/24 h in data set [3] (setting [8]); 32±2 g/24 h in data set [3] (setting [10]); 22±2 g/24 h in data set [3] (setting [12]); 32±7 g/24 h in data set [3] (setting [14]); 30±2 g/24 h in data set [3] (setting [16]). For the same molecule, in data set [4], the “stability / conversion to dipeptide in the presence of ACE” value is “transformed rapidly to dipeptide VW”.

Take DRVYIHPFHL [ANG I, angiotensin I]: the “half-life time of ANG I (T1/2) in human chymase solution in absence of inhibitory peptides” value in data set [5] came to 16 min.
